Assay results from patent US12098139B2, “Chemokine receptor modulators and uses thereof” (RAPT Therapeutics, Inc., priority 2018, dated 2024).

biological target: T1, hCCR4 (Chem5-hCCR4 cells) (Homo sapiens, UniProt P51679); assay: Calcium flux assay (CCL22-stimulated, FLIPR Calcium 6 dye); assay type: cell-based; conditions: Table 3, CCL22 1.5 nM, read-out: Potency (IC50)
T1 sequence (P51679 1-360): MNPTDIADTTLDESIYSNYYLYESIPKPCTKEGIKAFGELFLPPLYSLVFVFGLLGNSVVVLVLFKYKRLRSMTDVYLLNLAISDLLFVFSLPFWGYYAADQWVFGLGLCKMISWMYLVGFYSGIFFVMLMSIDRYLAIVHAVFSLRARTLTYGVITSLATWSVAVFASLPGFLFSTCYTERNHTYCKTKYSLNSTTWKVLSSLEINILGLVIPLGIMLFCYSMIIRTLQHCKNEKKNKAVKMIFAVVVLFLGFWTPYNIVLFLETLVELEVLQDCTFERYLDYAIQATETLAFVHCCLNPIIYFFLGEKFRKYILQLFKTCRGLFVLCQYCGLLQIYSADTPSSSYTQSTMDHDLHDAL
Procedure: Calcium Flux Assay. Compounds were evaluated in a calcium flux assay substantially performed as follows. Chem5-hCCR4 cells (EMD Millipore, Hayward, CA; HTS009C) were cultured under standard conditions and frozen in aliquots of 10×10^6 cells/mL. The day prior to compound testing, a vial was rapidly thawed and pipetted into 20 mL media (DMEM+10% FBS+1% Pen-Strep+1% L-glutamine). Cells were harvested by centrifugation and re-suspended in fresh culture medium. 25 μL of cell suspension was seeded into 384-well plates (Corning, Tewksbury, MA; CellBind with black wall/clear bottom). The plates were centrifuged at 300 g for 10 seconds and incubated overnight at 37° C. and 5% CO2. The day of compound testing, media was removed from the plates and 25 μL serum free media was added to each well. Plates were returned to the incubator for 2 h. 25 μL assay buffer (Hank's balanced salt solution+20 mM HEPES pH 7.4) containing FLIPR Calcium 6 dye (Molecular Devices, Sunnyvale, CA; #R8191) and probenecid (2.5 mM) was added to each well and incubated at 37° C. and 5% CO2 for 2 h. Compounds in DMSO were added to the plates using an HP D300e digital dispenser, and all wells were normalized to contain 0.25 μL (0.5%) DMSO. Plates were incubated for 1 hour at 37° C. and 5% CO2. CCL22 (Peprotech; Rockyhill, NJ) was diluted in assay buffer containing 0.1% BSA to 7.5 nM (corresponding to 5×EC80 of 1.5 nM).
Assay plates and working solution of CCL22 were transferred to the FlexStation plate reader (Molecular Devices) at 37° C. for 5 min of equilibration. Fluorescence recordings at 485 excitation/525 emission were performed at 2.5 second intervals. At t=16 seconds, 12.5 μL of CCL22 solution was added to each well and reads continued for 30 seconds at 2.5 second intervals. The minimum fluorescence (Fmin) was calculated by averaging the reads prior to ligand addition and the change in fluorescence (ΔF) was calculated by subtracting the Fmin from the average of the reads following ligand addition. The response ΔF/Fmin was plotted as a function of the compound concentration and the IC50 values were determined by non-linear regression analysis using a 4-parameter fit in either PRISM software (GraphPad; La Jolla, CA) or Dotmatics Browser.

Row | SMILES | IC50 [nM]
1 | C[C@@H](Nc1nc(N2CC([C@H]3CCCN(CCO)C3)C2)ncc1Br)c1ccc(Cl)cc1Cl [Example 11, 2-((R)-3-(1-(5-bromo-4-(((R)-1-(2,4-dichlorophenyl)ethyl)amino)pyrimidin-2-yl)azetidin-3-yl)piperidin-1-yl)ethan-1-ol] | < 100
2 | C[C@@H](Nc1nc(N2CC([C@H]3CCCN([C@H]4C[C@](C)(C(=O)O)C4)C3)C2)ncc1Cl)c1ccc(Cl)cc1Cl [Example 12, (1R,3r)-3-((R)-3-(1-(5-chloro-4-(((R)-1-(2,4-dichlorophenyl)ethyl)amino)pyrimidin-2-yl)azetidin-3-yl)piperidin-1-yl)-1-methylcyclobutane-1-carboxylic acid] | < 100
3 | C[C@@H](Nc1nc(N2CC([C@H]3CCCN([C@H]4C[C@](C)(C(=O)O)C4)C3)C2)ncc1Br)c1ccc(Cl)cc1Cl [Example 13, (1R,3r)-3-((R)-3-(1-(5-bromo-4-(((R)-1-(2,4-dichlorophenyl)ethyl)amino)pyrimidin-2-yl)azetidin-3-yl)piperidin-1-yl)-1-methylcyclobutane-1-carboxylic acid] | < 100
4 | C[C@@H](Nc1nc(N2CC([C@H]3CCCN(CCO)C3)C2)ncc1C#N)c1ccc(Cl)cc1Cl [Example 14, 4-(((R)-1-(2,4-dichlorophenyl)ethyl)amino)-2-(3-((R)-1-(2-hydroxyethyl)piperidin-3-yl)azetidin-1-yl)pyrimidine-5-carbonitrile] | < 100
5 | C[C@@H](Nc1nc(N2CC([C@H]3CCCN(CCO)C3)C2)ncc1C(F)(F)F)c1ccc(Cl)cc1Cl [Example 15, 2-((R)-3-(1-(4-(((R)-1-(2,4-dichlorophenyl)ethyl)amino)-5-(trifluoromethyl)pyrimidin-2-yl)azetidin-3-yl)piperidin-1-yl)ethan-1-ol] | > 500
6 | Cc1cnc(N2CC([C@H]3CCCN(CCN4CCCC4=O)C3)C2)nc1N[C@H](C)c1ccc(Cl)cc1Cl [Example 16, 1-(2-((R)-3-(1-(4-(((R)-1-(2,4-dichlorophenyl)ethyl)amino)-5-methylpyrimidin-2-yl)azetidin-3-yl)piperidin-1-yl)ethyl)pyrrolidin-2-one] | < 100
7 | Cc1cnc(N2CC([C@H]3CCCN([C@H]4C[C@@H](C(=O)O)C4)C3)C2)nc1N[C@H](C)c1ccc(Cl)cc1Cl [Example 17, (1S,3s)-3-((R)-3-(1-(4-(((R)-1-(2,4-dichlorophenyl)ethyl)amino)-5-methylpyrimidin-2-yl)azetidin-3-yl)piperidin-1-yl)cyclobutane-1-carboxylic acid] | < 100
8 | Cc1cnc(N2CC([C@H]3CCCN(C4CC(CO)C4)C3)C2)nc1N[C@H](C)c1ccc(Cl)cc1Cl (stereo partly drawn) [Example 18, (3-((R)-3-(1-(4-(((R)-1-(2,4-dichlorophenyl)ethyl)amino)-5-methylpyrimidin-2-yl)azetidin-3-yl)piperidin-1-yl)cyclobutyl)methanol] | < 100
9 | Cc1cnc(N2CC([C@H]3CCCN(CC(C)(C)O)C3)C2)nc1N[C@H](C)c1ccc(Cl)cc1Cl [Example 19, 1-((R)-3-(1-(4-(((R)-1-(2,4-dichlorophenyl)ethyl)amino)-5-methylpyrimidin-2-yl)azetidin-3-yl)piperidin-1-yl)-2-methylpropan-2-ol] | < 100
10 | C[C@@H](Nc1nc(N2CC([C@H]3CCCN([C@H]4C[C@](C)(C(=O)O)C4)C3)C2)nc2c1CCC2)c1ccc(Cl)cc1Cl [Example 20, (1R,3r)-3-((R)-3-(1-(4-(((R)-1-(2,4-dichlorophenyl)ethyl)amino)-6,7-dihydro-5H-cyclopenta[d]pyrimidin-2-yl)azetidin-3-yl)piperidin-1-yl)-1-methylcyclobutane-1-carboxylic acid] | < 100
11 | C[C@]1(C(=O)O)C[C@H](N2CCC[C@H](C3CN(c4ncc(Cl)c(NCc5ccc(Cl)cc5Cl)n4)C3)C2)C1 [Example 21, (1R,3r)-3-((R)-3-(1-(5-chloro-4-((2,4-dichlorobenzyl)amino)pyrimidin-2-yl)azetidin-3-yl)piperidin-1-yl)-1-methylcyclobutane-1-carboxylic acid] | > 500
12 | Cc1nc(N2CC([C@H]3CCCN([C@H]4C[C@](C)(C(=O)O)C4)C3)C2)nc(N[C@H](C)c2ccc(Cl)cc2Cl)c1C [Example 22, (1R,3r)-3-((R)-3-(1-(4-(((R)-1-(2,4-dichlorophenyl)ethyl)amino)-5,6-dimethylpyrimidin-2-yl)azetidin-3-yl)piperidin-1-yl)-1-methylcyclobutane-1-carboxylic acid] | < 100
13 | CC[C@]1(C(=O)O)C[C@H](N2CCC[C@H](C3CN(c4ncc(Cl)c(N[C@H](C)c5ccc(Cl)cc5Cl)n4)C3)C2)C1 [Example 23, (1R,3s)-3-((R)-3-(1-(5-chloro-4-(((R)-1-(2,4-dichlorophenyl)ethyl)amino)pyrimidin-2-yl)azetidin-3-yl)piperidin-1-yl)-1-ethylcyclobutane-1-carboxylic acid] | 100 to 500
14 | C[C@@H](Nc1nc(N2CC([C@H]3CCCN(CCO)C3)C2)nc2c1CCC2)c1ccc(Cl)cc1Cl [Example 24, 2-((R)-3-(1-(4-(((R)-1-(2,4-dichlorophenyl)ethyl)amino)-6,7-dihydro-5H-cyclopenta[d]pyrimidin-2-yl)azetidin-3-yl)piperidin-1-yl)ethan-1-ol] | 100 to 500
15 | C[C@@H](Nc1nc(N2CC([C@H]3CCCN([C@H]4C[C@@H](C(=O)O)C4)C3)C2)nc2ccccc12)c1ccc(Cl)cc1Cl [Example 25, (1S,3s)-3-((R)-3-(1-(4-(((R)-1-(2,4-dichlorophenyl)ethyl)amino)quinazolin-2-yl)azetidin-3-yl)piperidin-1-yl)cyclobutane-1-carboxylic acid] | < 100
16 | C[C@@H](Nc1nc(N2CC([C@H]3CCCN(CCO)C3)C2)nc2ccccc12)c1ccc(Cl)cc1Cl [Example 26, 2-((R)-3-(1-(4-(((R)-1-(2,4-dichlorophenyl)ethyl)amino)quinazolin-2-yl)azetidin-3-yl)piperidin-1-yl)ethan-1-ol] | < 100
17 | C[C@@H](Nc1nc(N2CC([C@H]3CCCN([C@H]4C[C@@](C)(C(=O)O)C4)C3)C2)nc2ccccc12)c1ccc(Cl)cc1Cl [Example 27, (1S,3s)-3-((R)-3-(1-(4-(((R)-1-(2,4-dichlorophenyl)ethyl)amino)quinazolin-2-yl)azetidin-3-yl)piperidin-1-yl)-1-methylcyclobutane-1-carboxylic acid] | < 100
18 | C[C@@H](Nc1nc(N2CC([C@H]3CCCN([C@H]4C[C@](C)(C(=O)O)C4)C3)C2)nc2ccsc12)c1ccc(Cl)cc1Cl [Example 28, (1R,3r)-3-((R)-3-(1-(4-(((R)-1-(2,4-dichlorophenyl)ethyl)amino)thieno[3,2-d]pyrimidin-2-yl)azetidin-3-yl)piperidin-1-yl)-1-methylcyclobutane-1-carboxylic acid] | < 100
19 | C[C@@H](Nc1nc(N2CC([C@H]3CCCN([C@H]4C[C@](C)(C(=O)O)C4)C3)C2)nc2sccc12)c1ccc(Cl)cc1Cl [Example 29, (1R,3r)-3-((R)-3-(1-(4-(((R)-1-(2,4-dichlorophenyl)ethyl)amino)thieno[2,3-d]pyrimidin-2-yl)azetidin-3-yl)piperidin-1-yl)-1-methylcyclobutane-1-carboxylic acid] | < 100
20 | Cc1nc(N2CC([C@H]3CCCN([C@H]4C[C@@H](C(=O)O)C4)C3)C2)nc(N[C@H](C)c2ccc(Cl)cc2Cl)c1C [Example 30, (1S,3s)-3-((R)-3-(1-(4-(((R)-1-(2,4-dichlorophenyl)ethyl)amino)-5,6-dimethylpyrimidin-2-yl)azetidin-3-yl)piperidin-1-yl)cyclobutane-1-carboxylic acid] | 100 to 500
21 | C[C@@H](Nc1nc(N2CC([C@H]3CCCN([C@H]4C[C@@H](C(=O)O)C4)C3)C2)nc2ccsc12)c1ccc(Cl)cc1Cl [Example 31, (1S,3s)-3-((R)-3-(1-(4-(((R)-1-(2,4-dichlorophenyl)ethyl)amino)thieno[3,2-d]pyrimidin-2-yl)azetidin-3-yl)piperidin-1-yl)cyclobutane-1-carboxylic acid] | < 100
